Where two headings read alike, the source gives them in different places. One block for each compound: values may come before it.
Tested on: PMA-differentiated THP-1 cells
Assay: IL-1β production in PMA-differentiated THP-1 cells stimulated with gramicidin (hTHP-1 assay containing 2% fetal bovine serum; Procedures 1 and 2)
Type: cell-based, human
Conditions: 2% fetal bovine serum
In short: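 THP-1 cells were differentiated with PMA (20 ng/ml, 16-18 h), detached, and plated at 50,000 cells/well in RPMI 1640 with 2% FBS. They were pre-treated with compound (0.0017–100 μM, 0.37% DMSO) for 1 h, then stimulated with gramicidin (5 μM) for 2 h. Supernatant IL-1β was measured by HTRF.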

[1] = Table B1, class symbols, read-out: Average IC50 of compounds in hTHP-1 assay: hTHP-1 IC50
[2] = Homo sapiens, THP-1, Table B2, class symbols, read-out: hTHP-1 IC50
[3] = Table B2, class symbols, read-out: hTHP-1 IC50
[4] = Homo sapiens, THP-1, Table B1, class symbols, read-out: Average IC50 of compounds in hTHP-1 assay: hTHP-1 IC50
[5] = Homo sapiens, THP-1, Table B3, hTHP-1 assay, class symbols, read-out: IC50

Structure (SMILES): CC1CCc2c1nc1c(c2NC(=O)N=S(N)(=O)c2ccn(C(F)F)n2)CCC1 (single isomer, unassigned) [Compound 184b, (S,S) or (S,R)-1-(difluoro-methyl)-N′-((3-methyl-1,2,3,5,67-hexahydro-dicyclopenta[b,e]pyridin-8-yl)carbamoyl)-1H-pyrazole-3-sulfonimidamide]
- IC50 [1]: 5 to 30 µM

Structure (SMILES): CC(C)(O)c1nc(CO)c(S(N)(=O)=NC(=O)Nc2c3c(nc4c2CCC4(C)C)CCC3)s1 (single isomer, unassigned) [Compound 121b, (S) or (R)-N′-((3,3-dimethyl-1,2,3,5,6,7-hexahydro-dicyclopenta[b,e]pyridin-8-yl)carbamoyl)-4-(hydroxymethyl)-2-(2-hydroxypropan-2-yl)thiazole-5-sulfonimidamide]
- IC50 [1]: 5 to 30 µM

Structure (SMILES): CC(C)(O)c1nc(CO)c(S(N)(=O)=NC(=O)Nc2c3c(nc4c2CCC4(C)C)CCC3)s1 (single isomer, unassigned) [Compound 121a, (R) or (S)-N′-((3,3-dimethyl-1,2,3,5,6,7-hexahydro-dicyclopenta[b,e]pyridin-8-yl)carbamoyl)-4-(hydroxymethyl)-2-(2-hydroxypropan-2-yl)thiazole-5-sulfonimidamide]
- IC50 [1]: 0.04 to 0.2 µM

Structure (SMILES): Cc1c(C2CCC2)nc2c(c1NC(=O)N=S(N)(=O)c1cnc(C(C)(C)O)s1)CCC2 (single isomer, unassigned) [Compound 649a, (R) or (S)-N′-((2-cyclobutyl-3-methyl-6,7-dihydro-5H-cyclopenta[b]pyridin-4-yl)carbamoyl)-2-(2-hydroxypropan-2-yl)thiazole-5-sulfonimidamide]
- IC50 [2]: 5 to 30 µM

Structure (SMILES): Cc1c(C2CC2)nc2c(c1NC(=O)N=S(N)(=O)c1cnn3c1OCCC3)CCC2 (centres unmarked) [Compound 306, N′-((2-cyclopropyl-3-methyl-6,7-dihydro-5H-cyclopenta[b]pyridin-4-yl)carbamoyl)-6,7-dihydro-5H-pyrazolo[5,1-b][1,3]oxazine-3-sulfonimidamide]
- IC50 [2]: 5 to 30 µM

Structure (SMILES): CC(C)(O)c1csc(S(N)(=O)=NC(=O)Nc2c3c(nc4c2CCC42CC2)CCC3)c1 (centres unmarked) [Compound 114]
- IC50 [4]: 0.04 to 0.2 µM

Structure (SMILES): CC1CCc2c1nc1c(c2NC(=O)N=S(N)(=O)c2cc(C(C)(C)O)cs2)CCC1C [Compound 131b, (S) and (S,R,R) and (S,S,S)-N′-((3,5-dimethyl-1,2,3,5,6,7-hexahydro-dicyclopenta[b,e]py-ridin-8-yl)carbamoyl)-4-(2-hydroxypropan-2-yl)thiophene-2-sulfonimidamide]
- IC50 [1]: 5 to 30 µM

Structure (SMILES): CC(C)(O)c1sc(S(N)(=O)=NC(=O)Nc2c3c(nc4c2CCC4(C)C)CCC3)cc1F (single isomer, unassigned) [Compound 613a, (R) or (S)-N′-((3,3-dimethyl-1,2,3,5,6,7-hexahydrodicyclopenta [b,e]pyridin-8-yl)carbamoyl)-4-fluoro-5-(2-hydroxypropan-2-yl)thiophene-2-sulfonimidamide]
- IC50 [3]: 0.04 to 0.2 µM

Structure (SMILES): CN(C)Cc1ccc(S(N)(=O)=NC(=O)Nc2c3c(nc4c2CCC4)CCC3)cc1 (single isomer, unassigned) [Compound 130a, (S) or (R)-4-((dimethylamino)methyl)-N′-((1,2,3,5,6,7-hexahydrodicyclo-penta[b,e]pyridin-8-yl)carbamoyl)benzene-sulfonamidamide]
- IC50 (Homo sapiens, THP-1, Table B1, numeric bounds, read-out: Average IC50 of compounds in hTHP-1 assay: hTHP-1 IC50): > 30 µM

Structure (SMILES): CC(C)c1cnc(F)c(C(C)C)c1NC(=O)N=S(N)(=O)c1cnc(C(C)(C)O)s1 (centres unmarked) [Compound 115, N′-((2-fluoro-3,5-diisopropylpyridin-4-yl)carbamoyl)-2-(2-hydroxypropan-2-yl)thiazole-5-sulfonimidamide]
- IC50 [4]: 1 to 5 µM

Structure (SMILES): CCc1nc2c(c(NC(=O)N=S(N)(=O)c3ccn(C(F)F)n3)c1C1CC1)CCC2 (centres unmarked) [Compound 629, N′-((3-cyclopropyl-2-ethyl-6,7-dihydro-5H-cyclopenta[b]pyridin-4-yl)carbamoyl)-1-(difluoromethyl)-1H-pyrazole-3-sulfonimidamide]
- IC50 [2]: 1 to 5 µM

Structure (SMILES): CC(C)(O)c1ccc(S(N)(=O)=NC(=O)Nc2c3c(nc4c2CCC4)CCC3)cc1 (single isomer, unassigned) [Compound 633b, (R) or (S)-N′-((1,2,3,5,6,7-hexahydrodicyclopenta [b,e]pyridin-8-yl)carbamoyl)-4-(2-hydroxypropan-2-yl)benzene-sulfonimidamide]
- IC50 [2]: 5 to 30 µM

Second part, the compound after the results:

- IC50 [3]: 5 to 30 µM
Structure (SMILES): CC(C)(O)c1cnc(S(N)(=O)=NC(=O)Nc2c3c(nc4c2CCC4(C)C)CCC3)s1 (single isomer, unassigned) [Compound 686b, (R) or (S)-N′-((3,3-dimethyl-1,2,3,5,6,7-hexahydrodicyclopenta [b,e]pyridin-8-yl)carbamoyl)-5-(2-hydroxypropan-2-yl)thiazole-2-sulfonimidamide]

- IC50 [3]: 5 to 30 µM
Structure (SMILES): CC(C)(O)c1cncc(S(N)(=O)=NC(=O)Nc2c3c(nc4c2CCC4(C)C)CCC3)c1 (single isomer, unassigned) [Compound 684b, (S) or (R)-N′-((3,3-dimethyl-1,2,3,5,6,7-hexahydrodicyclopenta [b,e]pyridin-8-yl)carbamoyl)-5-(2-hydroxypropan-2-yl)pyridine-3-sulfonimidamide]

- IC50 (Table B3, hTHP-1 assay, class symbols, read-out: IC50): 5 to 30 µM
Structure (SMILES): CCn1ccc(S(N)(=O)=NC(=O)Nc2c(C)c(C(F)(F)F)nc3c2CCC3)n1 (single isomer, unassigned) [Example 692, (S) or (R)-1-Ethyl-N′-((3-methyl-2-(trifluoromethyl)-6,7-dihydro-5H-cyclopenta[b]pyridin-4-yl)carbamoyl)-1H-pyrazole-3-sulfonimidamide]

- IC50 [2]: 1 to 5 µM
Structure (SMILES): CC(C)(O)c1cc(F)c([S@@](N)(=O)=NC(=O)Nc2c3c(nc(C4CC4)c2C2CC2)CCC3)s1 [Compound 727a]

- IC50 [2]: 1 to 5 µM
Structure (SMILES): CC(C)n1cc(CO)c(S(N)(=O)=NC(=O)Nc2c3c(nc4c2CCC4(C)C)CCC3)n1 (single isomer, unassigned) [Compound 682b, (R) or (S)-N′-((3,3-dimethyl-1,2,3,5,6,7-hexahydrodicyclopenta [b,e]pyridin-8-yl)carbamoyl)-4-(hydroxymethyl)-1-isopropyl-1H-pyrazole-3-sulfonimidamide]

- IC50 [2]: 5 to 30 µM
Structure (SMILES): COCc1nc(C(C)(C)O)sc1S(N)(=O)=NC(=O)Nc1c2c(nc3c1CCC3)CCC2 (single isomer, unassigned) [Compound 689b, (R) or (S)-N′-((1,2,3,5,6,7-hexahydrodicyclopenta [b,e]pyridin-8-yl)carbamoyl)-2-(2-hydroxypropan-2-yl)-4-(methoxymethyl) thiazole-5-sulfonimidamide]

- IC50 (Homo sapiens, THP-1, Table B2, numeric bounds, read-out: hTHP-1 IC50): > 30 µM
Structure (SMILES): CN(C)Cc1nc(C(C)(C)O)sc1[S@](N)(=O)=NC(=O)Nc1c2c(nc3c1CCC3(C)C)CCC2 [Compound 709]

- IC50 [5]: 1 to 5 µM
Structure (SMILES): Cc1c(CC(F)(F)F)nc2c(c1NC(=O)N=S(N)(=O)c1nn(C(F)F)cc1F)CCC2 (single isomer, unassigned) [Example 723, (R) or (S)-1-(difluoromethyl)-4-fluoro-N′-((3-methyl-2-(2,2,2-trifluoroethyl)-6,7-dihydro-5H-cyclopenta[b]pyridin-4-yl)carbamoyl)-1H-pyrazole-3-sulfonimidamide]

- IC50 [5]: 1 to 5 µM
Structure (SMILES): CCn1ccc(S(N)(=O)=NC(=O)Nc2c3c(nc(C4CC4)c2C2CC2)CCC3)n1 (centres unmarked) [Example 632, N′-((2,3-dicyclopropyl-6,7-dihydro-5H-cyclopenta[b]pyridin-4-yl)carbamoyl)-1-ethyl-1H-pyrazole-3-sulfonimidamide]

- IC50 [5]: 1 to 5 µM
Structure (SMILES): CCn1ccc(S(N)(=O)=NC(=O)Nc2c(C)c(C(F)(F)F)nc3c2CCC3)n1 (centres unmarked) [Example 634, 1-Ethyl-N′-((3-methyl-2-(trifluoromethyl)-6,7-dihydro-5H-cyclopenta[b]pyridin-4-yl)carbamoyl)-1H-pyrazole-3-sulfonimidamide]

- IC50 [3]: 0.2 to 1 µM
Structure (SMILES): CC(C)(O)c1cnc(S(N)(=O)=NC(=O)Nc2c3c(nc4c2CCC4(C)C)CCC3)s1 (single isomer, unassigned) [Compound 686a, (S) or (R)-N′-((3,3-dimethyl-1,2,3,5,6,7-hexahydrodicyclopenta [b,e]pyridin-8-yl)carbamoyl)-5-(2-hydroxypropan-2-yl)thiazole-2-sulfonimidamide]

- IC50 [2]: 1 to 5 µM
Structure (SMILES): CC(C)(O)c1cc(C#N)cc(S(N)(=O)=NC(=O)Nc2c3c(nc4c2CCC4(C)C)CCC3)c1 (single isomer, unassigned) [Compound 674b, (R) or (S)-3-Cyano-N′-((3,3-dimethyl-1,2,3,5,6,7-hexahydrodicyclopenta [b,e]pyridin-8-yl)carbamoyl)-5-(2-hydroxypropan-2-yl)benzene-sulfonimidamide]

- IC50 [3]: 5 to 30 µM
Structure (SMILES): CC(C)(O)c1cc(S(N)(=O)=NC(=O)Nc2c3c(nc4c2CCC4(C)C)CCC3)nn1-c1ccc(F)cc1 (single isomer, unassigned) [Compound 705a, (S) or (R)-N′-((3,3-dimethyl-1,2,3,5,6,7-hexahydrodicyclopenta [b,e]pyridin-8-yl)carbamoyl)-1-(4-fluorophenyl)-5-(2-hydroxypropan-2-yl)-1H-pyrazole-3-sulfonimidamide]

- IC50 (Table B4, class symbols, read-out: hTHP-1 IC50): 5 to 30 µM
Structure (SMILES): NS(=O)(=NC(=O)Nc1c2c(nc(C(F)(F)F)c1C1CC1)CCC2)c1nn(C(F)F)cc1F (single isomer, unassigned) [Example 776, (S) or (R)-N′-((3-cyclopropyl-2-(trifluoromethyl)-6,7-dihydro-5H-cyclopenta[b]pyridin-4-yl)carbamoyl)-1-(difluoromethyl)-4-fluoro-1H-pyrazole-3-sulfonimidamide]

Reference: patent US20230031406A1, “COMPOUNDS AND COMPOSITIONS FOR TREATING CONDITIONS ASSOCIATED WITH NLRP ACTIVITY” (Novartis AG, priority 2018, published 2023)
